As a reminder, the Kd is the constant that tells how readily two partners part at equilibrium. Usually IC50 stands for the point on the concentration scale where inhibition reaches its midpoint.

Results on four compounds are retold here after PMC11672137, “High-Affinity Lectin Ligands Enable the Detection of Pathogenic Pseudomonas aeruginosa Biofilms: Implications for Diagnostics and Therapy” (JACS Au, 2024).

Test [1] concerns the target T1, LecA (Pseudomonas aeruginosa, UniProt Q05097).
T1 construct: made in house
The note with it: read-out: Kd by ITC; cited from earlier work. For orientation: ITC needs no label: the signal is the heat of the interaction.

In test [2] the target is T1, LecA. The test can be described thus: Competitive binding assay based on fluorescence polarization, LecA. The conditions noted are these: LecA 20 µM, reporter ligand S38, 2% DMSO; read-out: IC50 (competitive binding, FP). The method, then: Next, binding of the optimized divalent ligand 17 and its synthetic precursor 16 to LecA was evaluated by fluorescence polarization-based (FP) assays,[47] SPR, and ITC. […] Therefore, fluorescent ligand 17 was analyzed in a direct binding experiment by FP. […] The dissociation constants for 16 were 47.2 ± 11.3 nM (ITC) and 47.8 ± 44.1 nM (steady-state SPR), while for 17, the values were 64.1 ± 31.1 nM and 79.3 ± 24.9 nM (steady-state SPR). For the SPR experiments, Kd was also determined by single-cycle kinetic analysis resulting in approximately five times higher affinity, but the data have limited reliability due to suboptimal fit for the kinetic curves (Figures S13B and S14).[58]−[60] […]
137 mM NaCl, 2.6 mM KCl at pH 7.4 supplemented with 1 mM CaCl2). Protein concentration was determined by UV spectroscopy at 280 nm using a molar extinction coefficient of 27 960 M-1 cm-1 for LecA and 6 990 M-1 cm-1 for LecB.
All synthesized alkyne precursors (S5m, S5p, S6m, S6p, S11, 25, S16, S22 and S24) were analysed in the previously established competitive binding assays based on fluorescence polarization (Figure S2).18,19 Galactose-based compounds (S5m, S5p, S6m, S6p, S11) were evaluated against LecA and C-glycoside-based compounds […] and S16 against LecB. […]
PheraStar FS plate reader (BMG Labtech GmbH, Germany) with excitation filters at 485 nm and emission filters at 535 nm. […]
(In general: Fluorescence polarisation rises when a labelled molecule tumbles more slowly, as on binding a larger partner.)

Test [3] deals with P. aeruginosa PAO1 biofilms. In words: In vitro biofilm staining under flow conditions, compound supplementation to the medium. Format: cell-based, Pseudomonas aeruginosa. The conditions noted are these: 500 nM in medium, 4 h, 3 mL/h, fluorescence microscope. The method, then:
(§1) P. aeruginosa biofilms were grown under flow conditions and observed by fluorescence microscopy in analogy to Ghanbari et al.[66] To this end, P. aeruginosa PAO1 expressing the red fluorescent protein mCherry[56] was diluted to an OD600 nm of 0.1 and injected into the microfluidics device. After a 30-min settling period, biofilms were grown under a constant laminar flow rate of 3 mL/h per channel. Following 48 h of incubation at 30 °C, dense and mature P. aeruginosa PAO1 biofilms were observed, which were then further used for analysis of the imaging probes.
To circumvent these technical drawbacks, the addition of compounds to the medium reservoir and retention at the biofilm was pursued. Imaging compounds were added to the medium reservoirs at a concentration of 500 nM, which were continuously pumped (3 mL/h) through the flow cell for 4 h. Compound accumulation at mature P. aeruginosa biofilms was immediately analyzed using fluorescence microscopy. Afterwards, the medium was exchanged, and the biofilms were washed for 30 min (3 mL/h, no compound) to monitor the retention (Figure 5). Furthermore, an analysis using CLSM was also performed after 4 h of accumulation without washing (Figures 5 and S22).
Figure 5 Staining of P. aeruginosa PAO1 biofilms grown under flow conditions with compound supplementation to the medium. Biofilm staining with (A) fluorescein divalent probe 17, (B) fluorescein control 24, (C) BODIPY divalent probe 19, and (D) BDP FL azide control 18 was monitored after 4 h of accumulation under constant flow (3 mL/h) of LB media containing 500 nM of respective compound. Retention of imaging compounds is shown after a subsequent wash period for 30 min with medium (3 mL/h, no compound). Images were recorded by using a fluorescence microscope. CLSM was performed for (E) BODIPY divalent probe 19 and the control (F) BDP FL azide 18 after 4 h of accumulation. Green signal originates from fluorescently labeled probes 17 and 19 and controls 24 and 18. P. aeruginosa constitutively expressing mCherry from pMP7605^56 is shown in red. Z-Stack size, 2 μm. Scale bar = 50 μm.
In vitro biofilm staining under flow conditions
The flow cell experiment was set up in analogy to Ghanbari et al. and in this study, optimized and established for biofilm staining.25 In principle, the experiment is based on an inlet connected to a medium source, a peristaltic pump providing constant medium flow, a flow chamber enabling analysis of bacterial growth and an outlet (waste container/bottle).
The medium used in the flow system was LB diluted by factor 5 containing 60 µg/mL
Gm. Silicone tubings 1.6 mm (ibidi, Germany) were used transporting medium from inlet to the peristaltic pump (Watson-Marlow Fluid Technology Solutions). Stopper hoses (CarlRoth) placed in peristaltic pump were coupled to silicone tubes via connectors (ibidi, Germany).
Stopper hoses are connected to bubble traps (obtained by Claus Sternberg, DTU Copenhagen) via 0.8 mm silicone tubing (ibidi, Germany). Bubble traps were used to remove air from the medium flow and to avoid biofilm disruption. Downstream from the bubble traps, the flow cell (μ-Slide VI 0.4 ibiTreat, ibidi, Germany) was placed into the system and connected to 1.6 mm silicone tubes (ibidi, Germany). The outlet is leading the medium from flow chamber to a waste […]
In order to inoculate the flow cell with P. aeruginosa PAO1 mCherry (pMP7605)23 the silicone tubes upstream and downstream of the flow chamber were pinched off by using commercial plastic clamps. The medium flow was stopped and the flow cell was inoculated by injecting 300 µL of the bacterial suspension (OD600nm of 0.1) into the silicone tubing upstream of the flow chamber. For this, a cannula (0.30 x 12 mm, Sterican) was used. The injection point was sealed with silicone glue. After bacterial settling time of 30 min, the flow was started again and clamps were removed. Growth temperature was regulated by using a heat system (ibidi, […]
Germany). […]

The subject of test [4] is P. aeruginosa PAO1 biofilms. In words: In vitro biofilm staining under flow conditions, injection method. The note with it: 17 μM in channel, 10 min incubation, then flow 3 mL/h for 10-20 min. It is filed as cell-based, Pseudomonas aeruginosa. The method, then:
as §1
Two different staining methods were evaluated for the imaging of P. aeruginosa PAO1 biofilms: (I) direct injection of the imaging compounds into the flow system or (II) compound supplementation into the medium and gradual accumulation at the biofilm (Figure S18). […] The flow of compounds 17 and 24 and their arrival in the flow cells were monitored using a fluorescence microscope attached to the flow system. […]
Figure 4 Staining of P. aeruginosa PAO1 biofilms under flow following the injection method. […] Pictures of the same aggregates were recorded prior to compound injection (t−10), during a 10 min incubation period without flow (t0) and during the wash period (constant flow, 3 mL/h) at different time points t5, t10, t15, and t20 (5, 10, 15, and 20 min) using a fluorescence microscope. […]

The target in another test is T2, LecB (Pseudomonas aeruginosa, UniProt Q9HYN5).
T2 construct: made in house
T2 sequence (Q9HYN5 entry or part of it): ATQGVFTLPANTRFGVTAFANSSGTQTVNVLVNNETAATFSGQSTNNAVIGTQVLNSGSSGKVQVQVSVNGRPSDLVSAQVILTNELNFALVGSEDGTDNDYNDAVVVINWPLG
The test can be described thus: Competitive binding assay based on fluorescence polarization, LecB.

SMILES strings stand for the structures.

T1 sequence (Q05097 whole entry): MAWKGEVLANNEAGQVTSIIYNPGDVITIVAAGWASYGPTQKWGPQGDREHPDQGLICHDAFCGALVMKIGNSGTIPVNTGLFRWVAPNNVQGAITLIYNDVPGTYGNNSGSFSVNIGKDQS
Method for LecB: LecA competitive binding assay was performed in presence of 2% DMSO, whereas LecB competitive binding assay had less than 0.5% DMSO present. In short, the compound dilution series were prepared in 96 well plates. 10 µL of each dilution in triplicates were mixed with 10 µL of master mix (40 µM LecA, 20 nM galactose-fluorescein reporter ligand S38 or 300 nM LecB and 20 nM S39 in TBS/Ca2+ buffer, Figure S3) in 384-well microtiter plates (Greiner Bio-One, Germany, cat no 781900). The plates were centrifuged (1 min, 500 g), sealed (EASYseal, Greiner Bio-One, cat no 676001) and incubated for 1 h in case of LecA and 6 h in case of LecB in a dark wet chamber under gentle shaking. Fluorescence was measured on a
PheraStar FS plate reader (BMG Labtech GmbH, Germany) with excitation filters at 485 nm and emission filters at 535 nm. The measured intensities were reduced by the blank values (protein in TBS/Ca2+ buffer) and analysed with MARS Data Analysis Software (BMG Labtech GmbH, Germany). IC50 values were determined by the four-parameter variable slope model with the minimum and maximum limits of the fit fixed according to the controls in each assay

As to `OC[C@H]1O[C@@H](Oc2ccccc2)[C@H](O)[C@@H](O)[C@H]1O` [compound 1, phenyl β-D-galactoside], the Kd at LecA [1] is 8.8 µM.

In the case of `O=[N+]([O-])c1ccc(O[C@@H]2O[C@H](CO)[C@H](O)[C@H](O)[C@H]2O)cc1` [para-nitrophenyl β-D-galactoside], at LecA [2], the IC50 amounted to 39.7 ± 11.5 µM.

Consider `O=C1OC2(c3ccc(O)cc3Oc3cc(O)ccc32)c2ccccc21` [compound 24, fluorescein, reference compound], for which, in test [3], the “Biofilm staining after accumulation” value is “did not result in any observable staining”. Moreover, the “Retention of fluorescence at biofilm during wash” value in test [4] was “completely disappeared after 10 min”.

With `C#Cc1ccc(S(=O)(=O)NC[C@H]2O[C@@H](C)[C@@H](O)[C@@H](O)[C@@H]2O)s1` [compound 23], the IC50 at LecB came to 2400 ± 500 nM.
